# In paper PMC6979384, “Characterization of the plant homeodomain (PHD) reader family for their histone tail interactions” (Epigenetics & Chromatin, 2020):
# Where no end group is shown, it is not given here.
# Tests used:
# Experiment in all cases: Histone peptide microarray
# Type in all cases: binding, human
# [1] = system: CHD5 (PPCC); details: GST-tagged CHD5 (PPCC = Dual PHD + Dual Chromodomain); histone peptide array; arrays performed twice, n of 4
# How it was run: (§1)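 Readout is array binding signal, reported as the mean and standard deviation over four replicates. Each purified GST-fused PHD domain was incubated at 0.5 μM with a library of 293 modified histone peptides.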
# [2] = system: PHF8; details: GST-tagged PHF8; histone peptide array; arrays performed twice, n of 4
# How it was run: as §1
# [3] = system: KDM5B (1); details: GST-tagged KDM5B (1); histone peptide array; arrays performed twice, n of 4
# How it was run: as §1
# [4] = system: KDM7A; details: GST-tagged KDM7A; histone peptide array; arrays performed twice, n of 4
# How it was run: as §1
# [5] = system: ING4; details: GST-tagged ING4; histone peptide array; arrays performed twice, n of 4
# How it was run: as §1
# [6] = system: MORC3 (CW); details: GST-tagged MORC3 (CW = CW-type Zn-finger); histone peptide array; arrays performed twice, n of 4
# How it was run: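 Each reader, produced as a GST fusion and purified, was tested at 0.5 μM on synthetic histone peptides (293 in total) carrying single or combinatorial marks. Intensities averaged over four replicates.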
# [7] = system: ING5; details: GST-tagged ING5; histone peptide array; arrays performed twice, n of 4
# How it was run: as §1
# [8] = system: MLL5; details: GST-tagged MLL5; histone peptide array; arrays performed twice, n of 4
# How it was run: as §1
# [9] = system: CHD4 (PPCC); details: GST-tagged CHD4 (PPCC = Dual PHD + Dual Chromodomain); histone peptide array; arrays performed twice, n of 4
# How it was run: as §1
# [10] = system: ING3; details: GST-tagged ING3; histone peptide array; arrays performed twice, n of 4
# How it was run: as §1
# [11] = system: ING2; details: GST-tagged ING2; histone peptide array; arrays performed twice, n of 4
# How it was run: as §1
# [12] = system: DIDO1; details: GST-tagged DIDO1; histone peptide array; arrays performed twice, n of 4
# How it was run: as §1
# [13] = system: KDM4C (TTP); details: GST-tagged KDM4C (TTP = Tandem Tudor domain + PHD); histone peptide array; arrays performed twice, n of 4
# How it was run: as §1
# [14] = system: RAG2; details: GST-tagged RAG2; histone peptide array; arrays performed twice, n of 4
# How it was run: as §1
# [15] = system: BAZ2B; details: GST-tagged BAZ2B; histone peptide array; arrays performed twice, n of 4
# How it was run: as §1
# [16] = system: KDM5B (3); details: GST-tagged KDM5B (3); histone peptide array; arrays performed twice, n of 4
# How it was run: as §1
# [17] = system: KDM5A (1); details: GST-tagged KDM5A (1); histone peptide array; arrays performed twice, n of 4
# How it was run: as §1
# [18] = system: PHF23; details: GST-tagged PHF23; histone peptide array; arrays performed twice, n of 4
# How it was run: as §1
# [19] = system: DPF2 (PPC2W2); details: GST-tagged DPF2 (PPC2W2 = Dual PHD + C2W2-type Zn-finger); histone peptide array; arrays performed twice, n of 4
# How it was run: as §1
# [20] = system: TAF3; details: GST-tagged TAF3; histone peptide array; arrays performed twice, n of 4
# How it was run: as §1
# [21] = system: PHF21A; details: GST-tagged PHF21A; histone peptide array; arrays performed twice, n of 4
# How it was run: as §1
# [22] = system: CHD5 (PCC); details: GST-tagged CHD5 (PCC = PHD + Dual Chromodomain); histone peptide array; arrays performed twice, n of 4
# How it was run: as §1
# [23] = system: PHF13; details: GST-tagged PHF13; histone peptide array; arrays performed twice, n of 4
# How it was run: as §1
# [24] = system: ING1; details: GST-tagged ING1; histone peptide array; arrays performed twice, n of 4
# How it was run: as §1
# [25] = system: KDM5A (3); details: GST-tagged KDM5A (3); histone peptide array; arrays performed twice, n of 4
# How it was run: as §1
# [26] = system: PHRF1 (RP); details: GST-tagged PHRF1 (RP); histone peptide array; arrays performed twice, n of 4
# How it was run: as §1
# [27] = system: PHF2; details: GST-tagged PHF2; histone peptide array; arrays performed twice, n of 4
# How it was run: as §1
# [28] = system: AIRE (PP); details: GST-tagged AIRE (PP); histone peptide array; arrays performed twice, n of 4
# How it was run: as §1
# [29] = system: TRIM66 (PB); details: GST-tagged TRIM66 (PB = PHD + Bromodomain); histone peptide array; arrays performed twice, n of 4
# How it was run: as §1
# [30] = system: BPTF (PB); details: GST-tagged BPTF (PB = PHD + Bromodomain); histone peptide array; arrays performed twice, n of 4
# How it was run: as §1
# [31] = system: SP140L; details: GST-tagged SP140L; histone peptide array; arrays performed twice, n of 4
# How it was run: as §1
substance,measurement,setting,value
"H3 (74-84) N-ac: H3 74-84 (Ac-IAQDFKTDLRF; UniProt P68431 75-85, looked up, fragment)","Array Heatmap signal, CHD5 (PPCC)",[1],0.5613
same,"Array Heatmap signal, PHF8",[2],0.3664
same,"Array Heatmap signal, KDM5B (1)",[3],0.7009
same,"Array Heatmap signal, KDM7A",[4],0.3521
same,"Array Heatmap signal, ING4",[5],0.4711
same,"Array Heatmap signal, MORC3 (CW)",[6],0.4011
same,"Array Heatmap signal, ING5",[7],0.3669
same,"Array Heatmap signal, MLL5",[8],0.5353
same,"Array Heatmap signal, CHD4 (PPCC)",[9],0.602
same,"Array Heatmap signal, ING3",[10],0.5027
same,"Array Heatmap signal, ING2",[11],0.6419
same,"Array Heatmap signal, DIDO1",[12],0.7101
same,"Array Heatmap signal, KDM4C (TTP)",[13],0.495
same,"Array Heatmap signal, RAG2",[14],0.2671
same,"Array Heatmap signal, BAZ2B",[15],0.4698
same,"Array Heatmap signal, KDM5B (3)",[16],0.4839
same,"Array Heatmap signal, KDM5A (1)",[17],0.4913
same,"Array Heatmap signal, PHF23",[18],0.5407
same,"Array Heatmap signal, DPF2 (PPC2W2)",[19],0.6686
same,"Array Heatmap signal, TAF3",[20],0.2845
same,"Array Heatmap signal, PHF21A",[21],0.4735
same,"Array Heatmap signal, CHD5 (PCC)",[22],0.8195
same,"Array Heatmap signal, PHF13",[23],0.618
same,"Array Heatmap signal, ING1",[24],0.5586
same,"Array Heatmap signal, KDM5A (3)",[25],0.4833
same,"Array Heatmap signal, PHRF1 (RP)",[26],0.4448
same,"Array Heatmap signal, PHF2",[27],0.5329
same,"Array Heatmap signal, AIRE (PP)",[28],0.4661
same,"Array Heatmap signal, TRIM66 (PB)",[29],0.6043
same,"Array Heatmap signal, BPTF (PB)",[30],0.3549
same,"Array Heatmap signal, SP140L",[31],0.3545
